Assay results taken from ChEMBL document CHEMBL4419172, “Small molecule inhibitors of polynucleotide kinase/phosphatase, poly(ADP-ribose) polymerase and uses thereof” (2017).
Activity calls are given as the source filed them. The rule behind the calls is not given here. Starred links: 1 amine or outer side, 2 acyl side, 3 side chain; linkers in the order of their positions; H or OH if unused. Positions of bridges follow the written chain, without caps; N, C: chain ends. Non-standard residues stand in square brackets, D forms with d. Residues, ends and D or L forms follow the SMILES beside them. Adda = CO[C@@H](Cc1ccccc1)[C@@H](C)/C=C(C)/C=C/[C@H](N[*:1])[C@H](C)C(=O)[*:2]; dAsp(3S-Me) = C[C@H](C(=O)[*:3])[C@@H](N[*:1])C(=O)[*:2]; d(γGlu) = O=C(O)[C@@H](CCC(=O)[*:2])N[*:1]; NMeDha = C=C(NC)C(=O)O

Key:
Rattus norvegicus [1] = species on record: Rattus norvegicus; assay: Inhibition of rat delta-calcineurin expressed in Escherichia coli assessed as reduction in phosphatase activity by measuring release of inorganic phosphate using 5'-TAMRA-tagged 20-mer oligonucleotide as substrate incubated for 30 mins by fluorescence quenching based assay
[2] = Cytotoxicity against human A549 cells assessed as reduction in cell proliferation at >100 uM incubated for 72 hrs by cell-titer 96 aqueous non-radioactive cell proliferation assay; format: cell-based
[3] = Cytotoxicity against human MDA-MB-231 cells assessed as reduction in cell proliferation at 100 uM incubated for 72 hrs by cell-titer 96 aqueous non-radioactive cell proliferation assay; format: cell-based
[4] = Cytotoxicity against human A549 cells assessed as reduction in cell proliferation at 100 uM incubated for 72 hrs by cell-titer 96 aqueous non-radioactive cell proliferation assay; format: cell-based
Aprataxin (Homo sapiens) = Aprataxin (Homo sapiens) (UniProt Q7Z2E3); assay: Inhibition of human APTX assessed as reduction in phosphatase activity by measuring release of inorganic phosphate at 50 uM using 5'-TAMRA-tagged 20-mer oligonucleotide as substrate incubated for 30 mins by fluorescence quenching based assay
A549 [5] = assay: Cytotoxicity against human A549 cells assessed as reduction in cell proliferation at 1 uM incubated for 72 hrs by cell-titer 96 aqueous non-radioactive cell proliferation assay; format: cell-based; conditions: a549, 72 h
[6] = Cytotoxicity against human MDA-MB-231 cells assessed as reduction in cell proliferation at >100 uM incubated for 72 hrs by cell-titer 96 aqueous non-radioactive cell proliferation assay; format: cell-based
MDA-MB-231 [7] = assay: Radiosensitizer activity in PNKP-depleted human MDA-MB-231 cells assessed as reduction in cell survival at 1 uM pre-incubated for 2 hrs prior to gamma irradiation and further incubated for 24 hrs and measured after 14 days by crystal violet staining based by clonogenic assay relative to control; format: functional
[8] = molecular target: Serine/threonine-protein phosphatase PP1-gamma catalytic subunit (Homo sapiens) (UniProt P36873); assay: Inhibition of human PP-1cgamma expressed in Escherichia coli assessed as reduction in phosphatase activity by measuring release of inorganic phosphate at 83.3 uM using 5'-TAMRA-tagged 20-mer oligonucleotide as substrate incubated for 30 mins by fluorescence quenching based assay
A549 [9] = assay: Radiosensitizer activity in PNKP-depleted human A549 cells assessed as reduction in cell survival at 1 uM pre-incubated for 2 hrs prior to gamma irradiation and further incubated for 24 hrs and measured after 14 days by crystal violet staining based by clonogenic assay relative to control; format: functional
A549 [10] = assay: Chemosensitizer activity in human A549 cells assessed as reduction in cell survival at 1 uM pre-incubated for 2 hrs prior to camptothecin and further incubated for 24 hrs and measured after 10 to 14 days by crystal violet staining based by clonogenic assay relative to control; format: functional
A549 [11] = assay: Radiosensitizer activity in human A549 cells assessed as reduction in cell survival at 1 uM pre-incubated for 2 hrs prior to gamma irradiation and further incubated for 24 hrs and measured after 14 days by crystal violet staining based by clonogenic assay relative to control; format: functional
M059J = assay: Antiproliferative activity against human M059J cells expressing non-functional DNA dependent protein kinase assessed as reduction in cell survival at 1 to 5 uM by MTS assay; format: cell-based
MDA-MB-231 [12] = assay: Radiosensitizer activity in human MDA-MB-231 cells assessed as reduction in cell survival at 1 uM pre-incubated for 2 hrs prior to gamma irradiation and further incubated for 24 hrs and measured after 14 days by crystal violet staining based by clonogenic assay relative to control; format: functional
A549 [13] = assay: Antiproliferative activity against PNKP-depleted and DNA polymerase-beta dominant negative human A549 cells assessed as reduction in cell survival at 1 to 5 uM by MTS assay; format: functional, cell-based
Rattus norvegicus [14] = species on record: Rattus norvegicus; assay: Inhibition of rat delta-calcineurin expressed in Escherichia coli assessed as reduction in phosphatase activity by measuring release of inorganic phosphate at 83.3 uM using 5'-TAMRA-tagged 20-mer oligonucleotide as substrate incubated for 30 mins by fluorescence quenching based assay
[15] = molecular target: Bifunctional polynucleotide phosphatase/kinase (Mus musculus) (UniProt Q9JLV6); assay: Inhibition of mouse PNKP assessed as reduction in PNKP 3'-phosphatase activity by measuring release of inorganic phosphate at 5 to 50 uM using 5'-TAMRA-tagged 20-mer oligonucleotide as substrate incubated for 30 mins by fluorescence quenching based assay
MDA-MB-231 [16] = assay: Cytotoxicity against human MDA-MB-231 cells assessed as reduction in cell proliferation at 1 uM incubated for 72 hrs by cell-titer 96 aqueous non-radioactive cell proliferation assay; format: cell-based; conditions: mda-mb-231, 72 h

Serine/threonine-protein phosphatase PP1-gamma catalytic subunit (Homo sapiens), sequence (P36873 2-323 limits assumed): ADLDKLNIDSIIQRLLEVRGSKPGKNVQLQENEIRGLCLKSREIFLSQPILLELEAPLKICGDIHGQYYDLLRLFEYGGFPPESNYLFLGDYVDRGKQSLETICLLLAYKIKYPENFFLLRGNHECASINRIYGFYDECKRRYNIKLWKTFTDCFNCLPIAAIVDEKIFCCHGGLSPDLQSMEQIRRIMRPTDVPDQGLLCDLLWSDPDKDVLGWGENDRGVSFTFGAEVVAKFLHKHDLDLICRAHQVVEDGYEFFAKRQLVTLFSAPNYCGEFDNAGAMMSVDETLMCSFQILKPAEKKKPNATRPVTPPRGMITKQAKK
Bifunctional polynucleotide phosphatase/kinase (Mus musculus), sequence (Q9JLV6 whole entry): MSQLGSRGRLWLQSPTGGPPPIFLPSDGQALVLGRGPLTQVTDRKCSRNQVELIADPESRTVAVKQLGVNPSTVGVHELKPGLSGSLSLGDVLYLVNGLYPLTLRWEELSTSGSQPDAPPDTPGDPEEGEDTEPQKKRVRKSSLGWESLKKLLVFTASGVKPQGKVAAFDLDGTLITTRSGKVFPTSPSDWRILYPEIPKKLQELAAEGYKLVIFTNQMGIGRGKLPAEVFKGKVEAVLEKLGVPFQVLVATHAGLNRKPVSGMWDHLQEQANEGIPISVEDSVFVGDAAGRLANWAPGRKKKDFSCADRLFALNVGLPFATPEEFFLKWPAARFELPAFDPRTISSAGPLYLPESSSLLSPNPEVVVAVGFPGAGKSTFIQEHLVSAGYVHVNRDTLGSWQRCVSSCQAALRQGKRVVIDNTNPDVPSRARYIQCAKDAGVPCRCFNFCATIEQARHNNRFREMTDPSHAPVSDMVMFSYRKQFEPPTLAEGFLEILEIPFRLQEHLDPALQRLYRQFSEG
Aprataxin (Homo sapiens), sequence (Q7Z2E3 whole entry): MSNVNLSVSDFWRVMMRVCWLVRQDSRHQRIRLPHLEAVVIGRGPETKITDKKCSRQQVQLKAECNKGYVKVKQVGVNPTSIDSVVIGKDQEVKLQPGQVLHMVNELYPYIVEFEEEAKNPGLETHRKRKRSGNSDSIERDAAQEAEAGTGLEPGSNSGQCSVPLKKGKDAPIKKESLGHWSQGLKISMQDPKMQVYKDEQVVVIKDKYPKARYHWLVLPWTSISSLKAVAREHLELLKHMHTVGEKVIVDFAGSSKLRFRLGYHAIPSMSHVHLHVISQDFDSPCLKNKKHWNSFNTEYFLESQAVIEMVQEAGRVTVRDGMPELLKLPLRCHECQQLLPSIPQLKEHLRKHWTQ

Compound	inhibition (Rattus norvegicus [1])	inhibition at 72 h [2] [%]	inhibition at 72 h, 100 µM [3] [%]	inhibition at 72 h, 100 µM [4] [%]	inhibition (Aprataxin (Homo sapiens))	Activity (A549 [5])	inhibition at 72 h [6] [%]	Activity (MDA-MB-231 [7])	inhibition [8]	Activity (A549 [9])	Activity (A549 [10])	fold change (FC) (A549 [11])	Activity (M059J)	Activity (MDA-MB-231 [12])	Activity (A549 [13])	inhibition (Rattus norvegicus [14])	inhibition [15]	Activity (MDA-MB-231 [16])
C=C1C(=O)N[C@H](C)C(=O)N[C@@H](CC(C)C)C(=O)N[C@@H](C(=O)O)[C@H](C)C(=O)N[C@@H](CCCNC(=N)N)C(=O)N[C@@H](/C=C/C(C)=C/[C@H](C)[C@H](Cc2ccccc2)OC)[C@H](C)C(=O)N[C@@H](C(=O)O)CCC(=O)N1C (R[Adda][d(γGlu)][NMeDha][dA]L[dAsp(3S-Me)]-OH; lactam N-7)	Active																	
CCCCCCCCCCC(O)C1C=CC2C(=O)N(c3ccccc3)C(=O)C2N1Nc1ccc([N+](=O)[O-])cc1 (stereo not drawn)		≤ 50	≤ 50	≤ 50	inactive	Non-Toxic	≤ 50	inactive	inactive	inactive	Active	2	inactive	Active	Active	inactive	Active	Non-Toxic
